Reference: ChEMBL document CHEMBL1201862, “PubChem BioAssay data set” (2004)
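Five concentrations, 48 hours, 96-well plates. GI50 = concentration required for 50% inhibition of growth.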 Calls of active or inactive are those of the source. No stated cut-off is given here; in the data, active = GI50 up to about 1.1 µM and inactive = higher.

Experiments:
Assay in all cases: NCI anticancer screen, dose series, 48 h
NCI-H226 = tested on: NCI-H226
DLD-1 = tested on: DLD-1
UO-31 = tested on: UO-31
KM-20L2 = tested on: KM-20L2
786-0 = tested on: 786-0
SNB-75 = tested on: SNB-75
A549 = tested on: A549
SK-OV-3 = tested on: SK-OV-3
KM12 = tested on: KM12
MOLT-4 = tested on: MOLT-4
SK-MEL-28 = tested on: SK-MEL-28
HL-60 = tested on: HL-60
COLO 205 = tested on: COLO 205
HT-29 = tested on: HT-29
OVCAR-4 = tested on: OVCAR-4
NCI-H460 = tested on: NCI-H460
SW-620 = tested on: SW-620
U-251 = tested on: U-251
RXF 631 = tested on: RXF 631
SF-268 = tested on: SF-268
NCI-H23 = tested on: NCI-H23
M19-MEL = tested on: M19-MEL
OVCAR-5 = tested on: OVCAR-5
HCT-15 = tested on: HCT-15
RXF 393 = tested on: RXF 393
NCI-H522 = tested on: NCI-H522
CAKI-1 = tested on: CAKI-1
K562 = tested on: K562
M14 = tested on: M14
IGROV-1 = tested on: IGROV-1
RPMI-8226 = tested on: RPMI-8226
SNB-19 = tested on: SNB-19
Malme-3M = tested on: Malme-3M
SR = tested on: SR
DMS-273 = tested on: DMS-273
SN12C = tested on: SN12C
SK-MEL-2 = tested on: SK-MEL-2
HCC 2998 = tested on: HCC 2998
LXFL 529 = tested on: LXFL 529
SF-539 = tested on: SF-539
UACC-257 = tested on: UACC-257
CCRF-CEM = tested on: CCRF-CEM
OVCAR-8 = tested on: OVCAR-8
EKVX = tested on: EKVX
SF-295 = tested on: SF-295
HOP-92 = tested on: HOP-92
TK-10 = tested on: TK-10
HCT-116 = tested on: HCT-116
ACHN = tested on: ACHN
OVCAR-3 = tested on: OVCAR-3
HOP-62 = tested on: HOP-62
LOX IMVI = tested on: LOX IMVI
A498 = tested on: A498
T47D = tested on: T47D
NCI/ADR-RES = tested on: NCI/ADR-RES
PC-3 = tested on: PC-3
Hs-578T = tested on: Hs-578T
MCF7 = tested on: MCF7
MDA-N = tested on: MDA-N
XF498 = tested on: XF498
SNB-78 = tested on: SNB-78
MDA-MB-231 = tested on: MDA-MB-231
DMS-114 = tested on: DMS-114
DU-145 = tested on: DU-145
SK-MEL-5 = tested on: SK-MEL-5
UACC-62 = tested on: UACC-62
HOP-18 = tested on: HOP-18
MDA-MB-435 = tested on: MDA-MB-435

O=C(CO[N+](=O)[O-])OCC(=O)c1ccccc1
GI50 (NCI-H226): > 100 µM (inactive) | GI50 (DLD-1): > 100 µM (inactive) | GI50 (UO-31): > 100 µM (inactive) | GI50 (KM-20L2): > 100 µM (inactive) | GI50 (786-0): > 100 µM (inactive) | GI50 (SNB-75): > 100 µM (inactive) | GI50 (A549): > 100 µM (inactive) | GI50 (SK-OV-3): > 100 µM (inactive) | GI50 (KM12): > 100 µM (inactive) | GI50 (MOLT-4): > 100 µM (inactive) | GI50 (SK-MEL-28): > 100 µM (inactive) | GI50 (HL-60): > 100 µM (inactive) | GI50 (COLO 205): > 100 µM (inactive) | GI50 (HT-29): > 100 µM (inactive) | GI50 (OVCAR-4): > 100 µM (inactive) | GI50 (NCI-H460): > 100 µM (inactive) | GI50 (SW-620): > 100 µM (inactive) | GI50 (U-251): > 100 µM (inactive) | GI50 (RXF 631): > 100 µM (inactive) | GI50 (SF-268): > 100 µM (inactive) | GI50 (NCI-H23): > 100 µM (inactive) | GI50 (M19-MEL): > 100 µM (inactive) | GI50 (OVCAR-5): > 100 µM (inactive) | GI50 (HCT-15): > 100 µM | GI50 (RXF 393): > 100 µM (inactive) | GI50 (NCI-H522): > 100 µM (inactive) | GI50 (CAKI-1): > 100 µM (inactive) | GI50 (K562): > 100 µM (inactive) | GI50 (M14): > 100 µM (inactive) | GI50 (IGROV-1): > 100 µM (inactive) | GI50 (RPMI-8226): > 100 µM (inactive) | GI50 (SNB-19): > 100 µM (inactive) | GI50 (Malme-3M): > 100 µM (inactive) | GI50 (SR): > 100 µM (inactive) | GI50 (DMS-273): > 100 µM (inactive) | GI50 (SN12C): > 100 µM (inactive) | GI50 (SK-MEL-2): > 100 µM (inactive) | GI50 (HCC 2998): > 100 µM (inactive) | GI50 (LXFL 529): > 100 µM (inactive) | GI50 (SF-539): > 100 µM (inactive) | GI50 (UACC-257): > 100 µM (inactive) | GI50 (CCRF-CEM): > 100 µM (inactive) | GI50 (OVCAR-8): > 100 µM (inactive) | GI50 (EKVX): > 100 µM (inactive) | GI50 (SF-295): > 100 µM (inactive) | GI50 (HOP-92): > 100 µM (inactive) | GI50 (TK-10): > 100 µM (inactive) | GI50 (HCT-116): > 100 µM (inactive) | GI50 (ACHN): > 100 µM (inactive) | GI50 (OVCAR-3): > 100 µM (inactive) | GI50 (HOP-62): > 100 µM (inactive) | GI50 (LOX IMVI): > 100 µM (inactive)

C/C(=N\NC(=S)N1CCC(N2CCCCC2)CC1)c1ccccn1
GI50 (DLD-1): 39.7 µM (inactive) | GI50 (A498): 2.37 µM (inactive) | GI50 (UO-31): 1.9 µM (inactive) | GI50 (T47D): 1.39 µM (inactive) | GI50 (KM-20L2): 4.46 µM (inactive) | GI50 (NCI/ADR-RES): 2.26 µM (inactive) | GI50 (786-0): 12.7 µM (inactive) | GI50 (PC-3): 3.56 µM (inactive) | GI50 (SNB-75): 2.87 µM (inactive) | GI50 (A549): 3.15 µM (inactive) | GI50 (SK-OV-3): 4.93 µM (inactive) | GI50 (KM12): 2.81 µM (inactive) | GI50 (MOLT-4): 0.586 µM (active) | GI50 (SK-MEL-28): 4.12 µM (inactive) | GI50 (HL-60): 0.796 µM (active) | GI50 (Hs-578T): 4.72 µM (inactive) | GI50 (COLO 205): 2.8 µM (inactive) | GI50 (HT-29): 3.17 µM (inactive) | GI50 (OVCAR-4): 4.73 µM (inactive) | GI50 (MCF7): 2.87 µM (inactive) | GI50 (NCI-H460): 2.73 µM (inactive) | GI50 (SW-620): 3.1 µM (inactive) | GI50 (MDA-N): 2.49 µM (inactive) | GI50 (U-251): 3.8 µM (inactive) | GI50 (XF498): 7 µM (inactive) | GI50 (SF-268): 3.68 µM (inactive) | GI50 (NCI-H23): 3.29 µM (inactive) | GI50 (M19-MEL): 3.71 µM (inactive) | GI50 (SNB-78): 11.5 µM (inactive) | GI50 (OVCAR-5): 4.11 µM (inactive) | GI50 (HCT-15): 2.4 µM | GI50 (RXF 393): 1.36 µM (inactive) | GI50 (NCI-H522): < 0.01 µM (active) | GI50 (CAKI-1): 2.07 µM (inactive) | GI50 (K562): 1.29 µM (inactive) | GI50 (M14): 1.87 µM (inactive) | GI50 (IGROV-1): 3.54 µM (inactive) | GI50 (RPMI-8226): 2.2 µM (inactive) | GI50 (SNB-19): 3.7 µM (inactive) | GI50 (Malme-3M): > 100 µM (inactive) | GI50 (SR): 0.519 µM (active) | GI50 (DMS-273): 2.81 µM (inactive) | GI50 (MDA-MB-231): 1.9 µM (inactive) | GI50 (DMS-114): 0.522 µM (active) | GI50 (SN12C): 2.7 µM (inactive) | GI50 (SK-MEL-2): > 100 µM (inactive) | GI50 (HCC 2998): 11.7 µM (inactive) | GI50 (LXFL 529): 0.828 µM (active) | GI50 (SF-539): 3.11 µM (inactive) | GI50 (DU-145): 3.72 µM (inactive) | GI50 (UACC-257): 2.9 µM (inactive) | GI50 (CCRF-CEM): 0.661 µM (active) | GI50 (OVCAR-8): 3.21 µM (inactive) | GI50 (EKVX): 3.4 µM (inactive) | GI50 (SK-MEL-5): 2.66 µM (inactive) | GI50 (SF-295): 2.28 µM (inactive) | GI50 (UACC-62): 3.33 µM (inactive) | GI50 (HOP-92): 2.92 µM (inactive) | GI50 (TK-10): 2.38 µM (inactive) | GI50 (HCT-116): 2.79 µM (inactive) | GI50 (ACHN): 2.41 µM (inactive) | GI50 (OVCAR-3): 2.4 µM (inactive) | GI50 (HOP-18): 3.8 µM (inactive) | GI50 (MDA-MB-435): 2.4 µM (inactive) | GI50 (LOX IMVI): 2.82 µM (inactive)
